In data set [1] the target is recombinant human PD-L1 (Homo sapiens, UniProt Q9NZQ7). The data set can be described thus: PD-L1 binding by microscale thermophoresis (MST). The conditions noted are these: for Kd: affinity for PD-L1 measured by MST.
Data set [2] deals with PD-L1/PD-1 interaction (Homo sapiens, UniProt Q9NZQ7). The data set can be described thus: Disruption of the PD-L1/PD-1 interaction in cells, FRET assay. The class given is cell-based. The settings on record: read-out: Bioactivity (IC50): capacity to disrupt the PD-L1/PD-1 interaction in cells.
Data set [3] has as its system CTLL-2 cells. The data set can be described thus: Reactivation of proliferation of CTLL-2 cells. The class given is cell-based. The conditions noted are these: read-out: Proliferation (IC50): capacity to reactivate proliferation of CTLL-2 cells.
Data set [4] is described as follows: DPPH free radical scavenging EPR assay. The conditions noted are these: read-out: DPPH EC50 (concentration reducing the EPR signal by 50%); DPPH 100 μM; test compound 2–90 μM. The method, then: The antioxidant activity of the compounds was characterized for their free radical scavenging activities using DPPH (100 μM), chosen as a model radical. In this case, we monitor the decay in the DPPH EPR signal intensity which occurs when EPR-silent diamagnetic hydrazine counterparts are formed from DPPH. The first line DPPH signal intensity is then recorded in the presence of increasing amount of the test compound (2–90 μM). Representative dose-dependent variations of the EPR signal are shown in Figure 2a, for compounds EDA, 2 and 4. They all show the characteristic five-line EPR spectrum of DPPH, due to the hyperfine coupling with two equivalent nitrogens, and for which the intensity is proportional to the DPPH concentration, and its decay in the presence of an antioxidant. […] From these curves, the intensity of the EPR signal can be measured and its decay quantified (Figure 2b).
For each compound, the percentage of inhibition of the EPR signal was plotted as a function of the compound concentration, and the fitted curves used to determine EC50 values. The same procedure has been used to evaluate various types of antioxidant compounds [29]. […] In this test, the compounds rank in the order EDA, 2, 3 > 5 > 1 > 4.
(§1) CW-EPR experiments were performed with an X-band Bruker Elexsys E500 spectrometer (Bruker BioSpin GmbH, Rheinstetten, Germany) operating at 9.86 GHz. CW spectra were recorded at room temperature with a microwave power of 5.024–10.02 mW and a modulation amplitude of 1–2 G that assumes non-saturation conditions. The antioxidant activity was monitored using DPPH (1,1-diphenyl-2-picrylhydrazyl) at a final concentration of 100 µM as free radical scavenging molecule and DMPO (5,5-dimethyl-1-pyrroline N-oxide) as spin trap agent for the spin trapping experiments. The DMPO solution was freshly distillated prior to use at a final concentration of 1 mM or 2 mM. The solution mixture was filled into a glass capillary of 50 μL, which was in turn, placed in 4 mm quartz EPR tubes prior to analysis.
(§2) The percent inhibition of DPPH was calculated according to the following equation: I (%) = ((I0 − I)/I0) ∗ 100 where I0 is the area of the EPR spectrum of DPPH (control sample), and I is the area of the EPR spectrum of DPPH with antioxidant compound. The rate constant for the reaction of antioxidant compounds with ^•OCH3 is expressed by the following equation: 1/Ra = 1/Rf + (kr [AH]/(ka [DMPO] × Rf). Rf, and Ra indicate EPR signal area (double integration of EPR signal) of ^•OCH3, DMPO/^•OCH3, respectively. ka and [DMPO] are constants, and a plot of 1/Ra vs. [AH] (concentration of antioxidant compound) gives a straight line with 1/Rf as an intercept and kr/(ka[DMPO] Rf) as the slope. In these circumstances, the rate constant for the reaction of ^•OCH3 with antioxidant compounds (kr) can be expressed by the following equation: kr = (ka [DMPO] × slope)/interception.

A short description of data set [5]: DMPO spin-trapping EPR assay under Fenton conditions in methanol. The conditions noted are these: DMPO 1 or 2 mM, •OCH3 radical. As for the experimental part: In this case, we monitor the formation of an oxygen centered radical generated in the presence of the spin trapping agent DMPO under Fenton conditions (hydrogen peroxide plus ferrous ions). For practical reasons (compound solubility), experiments were carried out using methanol as a solvent and therefore, the methoxy radical is monitored. A typical six-line EPR signal is recorded, corresponding to the DMPO/^•OCH3 radical, with the characteristic hyperfine coupling constants aN = 13.9 G and aH = 8.3 G. Here again, we can measure the decay of the EPR signal in the presence of the different antioxidant compounds and compare their relative capacity to reduce the signal. Typical concentration-dependent response curves are presented in Figure 3a for compounds EDA, 2 and 4. All six compounds can induce a decrease of the EPR signal but with various degrees of efficacy (Figure 3b). Here again, the results were quantified through the measure of the area of the EPR signal as a function of the compound concentration, to allow the calculation of the reaction constants for each compound. […] Proper dose-response curves were constructed and fitted to determine the reaction rate constant (kr) for each compound, as shown in Figure 3c and the kr values are collated in Table 2.
as §1, §2

Data set [6] is described as follows: Solubility in the aqueous reaction medium. It counts as physicochemical. The conditions noted are these: methanol:ammonium formate buffer 5 mM pH 4.5 (40:60). As for the experimental part: To begin with, each compound was incubated with an equimolar amount of 5fU for 180 min at 37 °C in a mixture of methanol and ammonium formate buffer 5 mM, pH 4.5 (40:60, v:v). […] In each case, the reaction mixture was introduced into the mass spectrometry equipment after a dilution in methanol to achieve a final concentration of 10 pmol/µL. The formation of drug-uracil adducts was monitored and unambiguously characterized by HRMS. […] There was no solubility issue with compound. The lack of reactivity is attributable to its adamantane unit which deactivates the adjacent reactive position or produces a steric hindrance. Otherwise, the other four compounds can react easily with 5fU to generate mono- and bis-adducts, as represented in Figure 4 with compound 2. In all cases, the observed molar mass and ring double bound value (RDB) value for the different species coincide perfectly with the expected mass (Δppm < 5 ppm) and RDB value (Table 3).

This note sets out measurements from paper PMC9143004, “Antioxidant Properties and Aldehyde Reactivity of PD-L1 Targeted Aryl-Pyrazolone Anticancer Agents” (Molecules, 2022).

Several values for one entry are separate records, joined by “and”; a condition that tells them apart may be missing. Identical values can stand only once. Like-named read-outs stand apart in the source and are kept apart here.

Sequence of PD-L1/PD-1 interaction (Q9NZQ7 19-290): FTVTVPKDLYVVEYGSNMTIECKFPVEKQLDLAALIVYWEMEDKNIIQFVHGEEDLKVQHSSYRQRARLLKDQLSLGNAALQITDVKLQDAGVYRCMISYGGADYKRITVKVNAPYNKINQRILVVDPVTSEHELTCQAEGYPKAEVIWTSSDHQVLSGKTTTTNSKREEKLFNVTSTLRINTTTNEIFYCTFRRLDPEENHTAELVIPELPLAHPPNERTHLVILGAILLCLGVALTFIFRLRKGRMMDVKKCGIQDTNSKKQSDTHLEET
Sequence of recombinant human PD-L1 (Q9NZQ7 19-290): as above

As to `CC1=NN(c2ccccn2)C(=O)C1` [Compound 1], the Kd in data set [1] came out at 77 ± 7 nM. In addition, the IC50 in data set [2] turned out to be 92 ± 9 nM; in data set [3] (Mus musculus, CTLL-2), 102 ± 8 nM. Also, in data set [4], the EC50 was 70600 nM. For the same compound, the “DMPO kr (reaction rate constant)” value in data set [5] is listed as 1.27 10^11 M^−1 s^−1.
For `CC1=NN(c2ccc(Cl)cc2Cl)C(=O)C1` [Compound 2], in that order: 34 ± 3 nM, 23 ± 3 nM, 53 ± 11 nM, 36500 nM and 1.93 10^11 M^−1 s^−1.
`COc1nc(OCc2cccc(-c3ccccc3)c2C)ccc1CNCCNC(C)=O` [BMS-202, reference compound]: the IC50 in data set [3] (CTLL-2 cells) stood at 53 ± 17 nM.
Same read-out and setting: with “Nivolumab: reference listed in Table 1; the paper does not describe it further” the figure was 58 ± 3 nM.
`O=C1CC(C23CC4CC(CC(C4)C2)C3)=NN1c1ccccc1Cl` [Compound 5]: the Kd in data set [1] is 12 ± 2 nM. Further, the IC50 in data set [2] is 23 ± 6 nM; in data set [3] (Mus musculus, CTLL-2), 57 ± 9 nM. For the same compound, in data set [4], the EC50 was determined as 59700 nM. The “DMPO kr (reaction rate constant)” value in data set [5] is recorded as 1.25 10^11 M^−1 s^−1.
On to `COc1ccccc1C1=NN(c2ccc(Cl)cc2Cl)C(=O)C1` [Compound 3], for which, in data set [3] (Mus musculus, CTLL-2), the IC50 was determined as 79 ± 7 nM. Further, the EC50 in data set [4] amounted to 34000 nM. Also, the “DMPO kr (reaction rate constant)” value in data set [5] is 1.88 10^11 M^−1 s^−1.
Regarding `CC1=NN(c2ccccc2)C(=O)C1` [EDA, 1-phenyl-3-methyl-5-pyrazolone, reference compound], the “Activity toward PD-L1” value in data set [1] (statement in the discussion) was “totally inactive”. Besides, the EC50 in data set [4] came out at 35800 nM. Moreover, in data set [5], the “DMPO kr (reaction rate constant)” value is 2.59 10^11 M^−1 s^−1.
Consider `O=C1CC(c2ccc(Cl)cc2)=NN1c1ccc(Cl)cc1Cl` [Compound 4], for which, in data set [1], the Kd is 7 ± 3 nM. For the same compound, the IC50 in data set [2] is 3 ± 2 nM; in data set [3] (Mus musculus, CTLL-2), 124 ± 7 nM. The EC50 in data set [4] was 97000 nM and 97600 nM. In addition, the “DMPO kr (reaction rate constant)” value in data set [5] is 1.04 10^11 M^−1 s^−1. Moreover, the “Solubility in the aqueous medium” value in data set [6] is “limited solubility”.
